Measurements reported in patent US20110224291A1, “SKIN EXTERNAL COMPOSITION FOR INHIBITING EPIDERMAL HYPERPROLIFERATION AND ALLEVIATING INFLAMMATORY SKIN DISEASES CONTAINING ORTHODIHYDROXYISOFLAVONE DERIVATIVES” (priority 2008, published 2011).

Columns and labels:
[1] = tested on: Human keratinocyte HaCaT cells; assay: Keratinocyte division inhibition, BrdU colorimetric ELISA; format: cell-based; settings: HaCaT cells, 1, 10 and 50 μM, 48 hours, BrdU analysis, FIG. 1; for keratinocyte division-inhibiting effect: compared with daidzein
Method: Human keratinocyte HaCaT cells were added to 10% fetal bovine serum-containing DMEM medium [Dulbecco's modified Eagle's Medium; Gibco 1210-0038] and cultured in a 24-well plate at a confluence of 70%. The HaCaT cells were treated with 1, 10 and 50 μM of each of 4′,6,7-trihydroxyisoflavone and 3′,4′,7-trihydroxyisoflavone, and after 48 hours, subjected to BrdU analysis. At 12 hours before the BrdU analysis was carried out, BrdU labeling was carried out. The BrdU analysis was carried out using a BrdU colorimetric ELISA kit (Roche) according to the manufacturer's instruction. First, the culture broth was treated with BrdU solution for 12 hours, and then the medium was removed. The cells were fixed, and a peroxidase-conjugated BrdU antibody was added thereto, after which the cells were treated with a substrate solution to induce color development. The degree of color development was measured with an ELISA reader. As positive controls, calcium known to be used for the differentiation of keratinocytes, and troglitazone (TGZ) known to inhibit cell division and induce cell differentiation were used.

[2] = tested on: Dickkopf homolog 3 (DKK3); assay: DKK3 expression in keratinocytes by Q-RT-PCR; format: cell-based; settings: human neonatal keratinocyte cells, 10 μM, 24 hours, FIG. 2
Method: (§1) Human neonatal keratinocyte cells purchased from Welskin Co (Seoul, Korea) were subcultured in a 25 cm^2 T-flask and incubated in a CO2 incubator under conditions of 37° C. and 5% CO2. Generally, the experiment was carried out after the cells have been subcultured for 2-3 passages. According to the method of Lonza, Inc. (Walkersville, Md., USA), the medium used in the cell culture was prepared by adding a KGM-2 bullet kit (bovine pituitary extract (2 mg), human epidermal growth factor (0.5 ml), insulin (0.5 ml), hydrocortisone (0.5 mg), transferrin (0.5 mg), epinephrine (0.5 mg), and gentamicin sulfate+amphotericin-B (GA-1000, 0.5 ml)) to 500 ml of KBM-2 medium (Clonetics CC-3103). When a confluence of about 50% was shown 2 days after the subculture of the cells, the serum was starved. After 24 hours, the cells were treated with 10 μM of each of a negative control, an Angelica gigas Nakai extract (positive control), daidzein and Examples 1-6 for 24 hours. […]
(§2) Then, RNA of the cells was isolated using Trizol reagent (Invitrogen, Carlsbad, Calif., USA). The isolated RNA was purified with Qiagen RNeasy kit (Qiagen, Valencia, Calif.), and then the quality of the RNA was confirmed using the Agilent 2100 Bio-Analyzer (Agilent Technologies, Santa Clara, Calif., USA). cDNA was synthesized from the RNA using a superscript reverse transcriptase (RT) kit (Invitrogen, Carlsbad, Calif.) and was quantitatively analyzed through a real time-reverse transcription polymerase chain reaction (Q-RT-PCR). The changes in the expression patterns of genes in the keratinocyte cells were analyzed using the TaqMan®gene expression assay kit (Applied Biosystems, Foster City, Calif.), Dickkopf homolog 3 (DKK3)-HS00247426_m1, and Frizzled homolog 1 (FZD1)-HS00268943_s1 (TagMan primer catalog name), thus confirming the expression levels of DKK3 and FZD1.

[3] = tested on: Frizzled homolog 1 (FZD1); assay: FZD1 expression in keratinocytes by Q-RT-PCR; format: cell-based; settings: human neonatal keratinocyte cells, 10 μM, 24 hours, FIG. 3
Method: as §1, §2

TNF-alpha = assay: Anti-inflammatory effect: TNF-alpha gene expression in LPS-treated HaCaT cells; format: cell-based, human; settings: 10 μM pretreatment 2 hours, 1 μg/ml LPS 8 hours, mRNA normalized to GAPDH, FIG. 4
Method: In this Example, human keratinocyte HaCaT cells obtained from the Korean Cell Line Bank (Seoul, Korea) were used. The HaCaT cells were seeded into a DMEM medium containing 10% (v/v) FBS, 100 U/ml penicillin and 100 μg/ml streptomycin and were incubated in an animal cell incubator under conditions of 37° C. and 5% CO2. The HaCaT cells prepared at 1.5×10^6 cells/well were adapted in FBS-free medium for 3 hours. The cells were pretreated with 10 μM of each of 4′,6,7-trihydroxyisoflavone, 3′,4′,7-trihydroxyisoflavone, daidzein and TGZ for 2 hours, 1 μg/ml of lipopolysaccharide (LPS) was added thereto, and then the cells were additionally cultured for 8 hours. Total RNA of the cells was extracted using TRIzol™ (GIBCO BRL, MD, USA) and stored at −80° C. 1 μg of the total RNA was added to 25 μl of a reverse transcription reaction buffer containing 50 mM Tris-HCl (pH 8.3), 75 mM KCl, 3 mM MgCl2, 0.1 M DTT, 10 mM dNTP and 40 U/μl RNase inhibitor. 0.5 μg/μl oligo(dT)16 primers and 200 U SuperScript per Script II reverse transcriptase (GiboBRL) were added thereto, and the total RNA was subjected to a reverse transcription reaction at 42° C. for 1 hour. Then, 2.5 μl of the reverse transcription reaction solution was added to […] of a PCR reaction buffer containing 0.04 U AmpliTaq DNA polymerase (Perkin Elmer, Shelton, Conn.), 50 mM Tris-HCl (pH 8.3), 0.25 mg/ml bovine serum albumin, 3 mM MgCl2, 0.25 mM dNTPs and a 1/50,000 dilution of SYBR green I (Molecular Probes, Eugene, Oreg.), and 10 μM primers were added thereto. Then, a PCR reaction was subjected to PCR amplification. The PCR reaction consisted of 30 cycles of denaturation at 94° C. for 30 sec, annealing at 53° C. for 30 sec and extension at 72° C. for 1 min. The relative mRNA levels were analyzed by measuring the change in fluorescence of SYBR green I using ICycler software. As an internal standard, GAPDH (glyceraldehyde 3-phosphate dehydrogenase) was used to normalize the quantitative expression level of the gene TNF-alpha.

Structure (SMILES) | concentration dependence of inhibition of keratinocyte division [1] | keratinocyte division-inhibiting effect [1] | expression level of DKK3 [2] | expression level of FZD1 [3] | expression of the TNF-alpha gene (TNF-alpha)
O=c1c(-c2ccc(O)c(O)c2)coc2cc(O)ccc12 [3′,4′,7-trihydroxyisoflavone] | concentration-dependent manner | significantly superior to that of daidzein | effectively promoted the expression | effectively promoted the expression | strongly inhibited
O=c1c(-c2ccc(O)cc2)coc2cc(O)c(O)cc12 [4′,6,7-trihydroxyisoflavone] | concentration-dependent manner | significantly superior to that of daidzein | effectively promoted the expression | effectively promoted the expression | strongly inhibited
O=c1c(-c2ccc(O)cc2)coc2cc(O)ccc12 [daidzein, reference compound] |  |  | significantly lower than those in the groups treated with the ortho-dihydroxyisoflavone derivatives | significantly lower than those in the groups treated with the ortho-dihydroxyisoflavone derivatives | slightly inhibited
